Results reported in the supplement of paper PMC10307832.

Key:
Assay in all cases: relative viability (nuclei count vs DMSO), 5 days (fraction); higher = more cells survive
Midostaurin + Lapatinib = compound: CO[C@@H]1[C@H](N(C)C(=O)c2ccccc2)C[C@H]2O[C@]1(C)n1c3ccccc3c3c4c(c5c6ccccc6n2c5c31)C(=O)NC4 [Midostaurin] + CS(=O)(=O)CCNCc1ccc(-c2ccc3ncnc(Nc4ccc(OCc5cccc(F)c5)c(Cl)c4)c3c2)o1 [Lapatinib] (partner 2 µM)
In short: (§1)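 Lung cancer cell lines in 1536-well plates were dosed by pin tool the day after seeding, either with one drug alone or with a fixed anchor-drug dose plus five library-drug doses (not always all listed) in √10 steps. After 5 days, cells were fixed and their nuclei stained in one step (final 0.05% Triton X-100, 1% formaldehyde, 1 ug/ml Hoechst), then counted on 4× images. Relative viability is the nuclei count in treated wells divided by that in vehicle wells. Values are medians of duplicate plates.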

Midostaurin + Vorinostat = compound: CO[C@@H]1[C@H](N(C)C(=O)c2ccccc2)C[C@H]2O[C@]1(C)n1c3ccccc3c3c4c(c5c6ccccc6n2c5c31)C(=O)NC4 [Midostaurin] + O=C(CCCCCCC(=O)Nc1ccccc1)NO [Vorinostat] (partner 1 µM)
In short: as §1

[1] = compound: COc1cc(-c2nn([C@H]3CC[C@H](N4CCN(C(C)=O)CC4)CC3)c3ncnc(N)c23)ccc1NC(=O)c1cc2ccccc2n1C + CC(=O)c1c(C)c2cnc(Nc3ccc(N4CCNCC4)cn3)nc2n(C2CCCC2)c1=O [Palbociclib] (partner 0.5 µM)
In short: as §1

[2] = compound: COc1cc(-c2nn([C@H]3CC[C@H](N4CCN(C(C)=O)CC4)CC3)c3ncnc(N)c23)ccc1NC(=O)c1cc2ccccc2n1C + Cc1nc(Nc2ncc(C(=O)Nc3c(C)cccc3Cl)s2)cc(N2CCN(CCO)CC2)n1 [Dasatinib] (partner 0.075 µM)
In short: as §1

[3] = compound: COc1cc(-c2nn([C@H]3CC[C@H](N4CCN(C(C)=O)CC4)CC3)c3ncnc(N)c23)ccc1NC(=O)c1cc2ccccc2n1C + N=C(N)NC(=N)NCCc1ccccc1 [Phenformin] (partner 250 µM)
In short: as §1

Cell Line	relative viability (Midostaurin + Lapatinib; first compound 0.01 µM)	relative viability (Midostaurin + Lapatinib; first compound 0.03162 µM)	relative viability (Midostaurin + Lapatinib; first compound 0.1 µM)	relative viability (Midostaurin + Lapatinib; first compound 0.3162 µM)	relative viability (Midostaurin + Vorinostat; first compound 0.01 µM)	relative viability (Midostaurin + Vorinostat; first compound 0.03162 µM)	relative viability (Midostaurin + Vorinostat; first compound 0.1 µM)	relative viability (Midostaurin + Vorinostat; first compound 0.3162 µM)	relative viability ([1]; first compound 0.0128 µM)	relative viability ([1]; first compound 0.04048 µM)	relative viability ([1]; first compound 0.128 µM)	relative viability ([1]; first compound 1.28 µM)	relative viability ([2]; first compound 0.0128 µM)	relative viability ([2]; first compound 0.04048 µM)	relative viability ([2]; first compound 0.128 µM)	relative viability ([2]; first compound 1.28 µM)	relative viability ([3]; first compound 0.0128 µM)	relative viability ([3]; first compound 0.04048 µM)	relative viability ([3]; first compound 0.128 µM)	relative viability ([3]; first compound 1.28 µM)
NCI-H2126	0.753	0.687	0.808	0.833	0.812	0.631	0.866	0.831	0.35	0.372	0.344	0.329	0.635	0.609	0.626	0.506	0.534	0.501	0.539	0.435
NCI-H3122	0.981	1.02	0.957	1.02	0.963	0.904	0.905	0.89	0.197	–	0.169	0.189	0.854	–	0.775	0.809	0.397	0.35	0.359	0.27
NCI-H1975	0.82	0.893	0.871	0.665	0.695	0.706	0.574	0.416	0.534	0.541	0.513	0.23	0.345	0.294	0.357	0.24	0.393	0.392	0.385	0.254
NCI-H1944	0.783	0.794	0.898	0.977	0.528	0.595	0.496	0.453	0.352	0.32	0.363	0.203	0.221	0.203	0.224	0.206	0.238	0.198	0.184	0.165
LU99A	0.983	1.04	1.02	0.993	0.672	0.433	0.454	0.479	0.419	0.435	0.389	0.377	0.541	0.541	0.634	0.556	0.938	0.59	0.85	0.882
SW 1573	1.2	1.17	1.06	1.07	0.717	1.09	0.732	1.02	0.393	0.388	0.172	0.347	0.496	0.743	0.627	0.612	0.344	0.34	0.371	0.399
NCI-H2347	0.883	0.863	0.956	1.11	0.575	0.511	0.602	0.419	0.461	0.43	0.392	0.416	0.262	–	0.333	0.308	0.51	–	0.482	0.346
HCC-44	1.01	0.985	1.04	1.13	1.08	1.06	1.11	1.16	1.04	0.975	0.972	1.29	–	–	–	–	0.367	0.187	0.305	0.22
